Test results taken from patent US20220323406A1, “METHODS AND COMPOSITIONS FOR DIFFERENTIATING STEM CELLS” (Massachusetts Institute of Technology, priority 2019, published 2022).

What was measured:
Settings in all cases: primary screen
[1] = system: ENR+CD organoids (ISC to Paneth cell differentiation); assay: Primary screen: CCh-stimulated lysozyme secretion LYZ.S, 2.5-D 384-well ENR+CD organoid differentiation; format: cell-based, mouse
Excerpt: (§1) High-throughput screening.

[2] = system: ENR+CD organoids (ISC to Paneth cell differentiation); assay: Primary screen: basal (non-stimulated) lysozyme secretion LYZ.NS, 2.5-D 384-well ENR+CD organoid differentiation; format: cell-based, mouse
Excerpt: as §1

ENR+CD organoids = assay: Primary screen: ATP (CellTiter-Glo 3D, CTG) cell number/viability, 2.5-D 384-well ENR+CD organoids;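 also: compounds given at plating and again on day 3 over a 6-day differentiation from ENR+CV stem-cell-enriched precursors, ATP measured on day 6, plate median as control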

Compound `NC(=O)c1ncn([C@@H]2O[C@H](CO)[C@@H](O)[C@H]2O)c1N` [Acadesine] has a Dose.FC.LYZ.S ([1]; dose 0.08 uM) of 0.004 log2 fold change, a Dose.FC.LYZ.S ([1]; dose 0.40 uM) of −0.012 log2 fold change and a Dose.FC.LYZ.S ([1]; dose 2.00 uM) of 0.053 log2 fold change. For the same compound, the Dose.FC.LYZ.S ([1]; dose 10.00 uM) was −0.102 log2 fold change, the Dose.FC.LYZ.NS ([2]; dose 0.08 uM) was 0.023 log2 fold change and the “Z.LYZ.NS (standard z score)” value ([2]; dose 0.08 uM) was 0.198. The Dose.FC.LYZ.NS ([2]; dose 0.40 uM) was −0.016 log2 fold change, the “Z.LYZ.NS (standard z score)” value ([2]; dose 0.40 uM) was −0.137 and the Dose.FC.LYZ.NS ([2]; dose 2.00 uM) was 0.016 log2 fold change. The “Z.LYZ.NS (standard z score)” value ([2]; dose 2.00 uM) was 0.140, the Dose.FC.LYZ.NS ([2]; dose 10.00 uM) was −0.070 log2 fold change and the “Z.LYZ.NS (standard z score)” value ([2]; dose 10.00 uM) was −0.607. It also gave a Dose.FC.CTG (ENR+CD organoids; dose 0.08 uM) of 0.094 log2 fold change, a Dose.FC.CTG (ENR+CD organoids; dose 0.40 uM) of 0.173 log2 fold change and a Dose.FC.CTG (ENR+CD organoids; dose 2.00 uM) of −0.005 log2 fold change. It also gave a Dose.FC.CTG (ENR+CD organoids; dose 10.00 uM) of 0.076 log2 fold change.
In the case of `O=C(/C=C/c1cccc(S(=O)(=O)Nc2ccccc2)c1)NO` [Belinostat (PXD101)], the Dose.FC.LYZ.S ([1]; dose 0.08 uM) is reported as −0.059 log2 fold change, the Dose.FC.LYZ.S ([1]; dose 0.40 uM) is reported as 0.042 log2 fold change and the Dose.FC.LYZ.S ([1]; dose 2.00 uM) is reported as −0.264 log2 fold change. The Dose.FC.LYZ.S ([1]; dose 10.00 uM) was −0.327 log2 fold change, the Dose.FC.LYZ.NS ([2]; dose 0.08 uM) was 0.008 log2 fold change and the “Z.LYZ.NS (standard z score)” value ([2]; dose 0.08 uM) was 0.067. For the same compound, the Dose.FC.LYZ.NS ([2]; dose 0.40 uM) was 0.129 log2 fold change, the “Z.LYZ.NS (standard z score)” value ([2]; dose 0.40 uM) was 1.125 and the Dose.FC.LYZ.NS ([2]; dose 2.00 uM) was −0.173 log2 fold change. For the same compound, the “Z.LYZ.NS (standard z score)” value ([2]; dose 2.00 uM) was −1.510, the Dose.FC.LYZ.NS ([2]; dose 10.00 uM) was −0.196 log2 fold change and the “Z.LYZ.NS (standard z score)” value ([2]; dose 10.00 uM) was −1.709. The Dose.FC.CTG (ENR+CD organoids; dose 0.08 uM) was −0.227 log2 fold change, the “Z.CTG (standard z score)” value (ENR+CD organoids; dose 0.08 uM) was −0.543 and the Dose.FC.CTG (ENR+CD organoids; dose 0.40 uM) was −0.055 log2 fold change. The “Z.CTG (standard z score)” value (ENR+CD organoids; dose 0.40 uM) was −0.133, the Dose.FC.CTG (ENR+CD organoids; dose 2.00 uM) was −0.782 log2 fold change and the “Z.CTG (standard z score)” value (ENR+CD organoids; dose 2.00 uM) was −1.868. For the same compound, the Dose.FC.CTG (ENR+CD organoids; dose 10.00 uM) was −1.122 log2 fold change and the “Z.CTG (standard z score)” value (ENR+CD organoids; dose 10.00 uM) was −2.679.
In the case of `Cn1c(=O)cc(N2CCC[C@@H](N)C2)n(Cc2cc(F)ccc2C#N)c1=O` [Trelagliptin], the Dose.FC.LYZ.S ([1]; dose 0.08 uM) is reported as 0.020 log2 fold change, the Dose.FC.LYZ.S ([1]; dose 0.40 uM) is reported as 0.058 log2 fold change and the Dose.FC.LYZ.S ([1]; dose 2.00 uM) is reported as −0.022 log2 fold change. For the same compound, the Dose.FC.LYZ.S ([1]; dose 10.00 uM) was −0.109 log2 fold change, the Dose.FC.LYZ.NS ([2]; dose 0.08 uM) was 0.007 log2 fold change and the “Z.LYZ.NS (standard z score)” value ([2]; dose 0.08 uM) was 0.059. The Dose.FC.LYZ.NS ([2]; dose 0.40 uM) was −0.019 log2 fold change, the “Z.LYZ.NS (standard z score)” value ([2]; dose 0.40 uM) was −0.166 and the Dose.FC.LYZ.NS ([2]; dose 2.00 uM) was −0.033 log2 fold change. For the same compound, the “Z.LYZ.NS (standard z score)” value ([2]; dose 2.00 uM) was −0.292, the Dose.FC.LYZ.NS ([2]; dose 10.00 uM) was −0.050 log2 fold change and the “Z.LYZ.NS (standard z score)” value ([2]; dose 10.00 uM) was −0.433. The Dose.FC.CTG (ENR+CD organoids; dose 0.08 uM) was 0.202 log2 fold change, the Dose.FC.CTG (ENR+CD organoids; dose 0.40 uM) was −0.076 log2 fold change and the Dose.FC.CTG (ENR+CD organoids; dose 2.00 uM) was 0.050 log2 fold change. It also gave a Dose.FC.CTG (ENR+CD organoids; dose 10.00 uM) of 0.135 log2 fold change.
`CC1=C(C(=O)Nc2cc3cn[nH]c3cc2F)C(c2ccc(C(F)(F)F)cc2)CC(=O)N1` (stereo not drawn) [GSK429286A] was tested, and the “Dose.FC.LYZ.S (log2 fold change)” value ([1]; dose 0.08 uM) was 0.247, the “Dose.FC.LYZ.S (log2 fold change)” value ([1]; dose 0.40 uM) was 0.283 and the “Dose.FC.LYZ.S (log2 fold change)” value ([1]; dose 2.00 uM) was 0.245. The “Dose.FC.LYZ.S (log2 fold change)” value ([1]; dose 10.00 uM) was 0.099, the “Dose.FC.LYZ.NS (log2 fold change)” value ([2]; dose 0.08 uM) was 0.137 and the “Z.LYZ.NS (standard z score)” value ([2]; dose 0.08 uM) was 1.197. For the same compound, the “Dose.FC.LYZ.NS (log2 fold change)” value ([2]; dose 0.40 uM) was 0.128, the “Z.LYZ.NS (standard z score)” value ([2]; dose 0.40 uM) was 1.117 and the “Dose.FC.LYZ.NS (log2 fold change)” value ([2]; dose 2.00 uM) was 0.140. For the same compound, the “Z.LYZ.NS (standard z score)” value ([2]; dose 2.00 uM) was 1.222, the “Dose.FC.LYZ.NS (log2 fold change)” value ([2]; dose 10.00 uM) was 0.059 and the “Z.LYZ.NS (standard z score)” value ([2]; dose 10.00 uM) was 0.517. The “Dose.FC.CTG (log2 fold change)” value (ENR+CD organoids; dose 0.08 uM) was 0.527, the “Z.CTG (standard z score)” value (ENR+CD organoids; dose 0.08 uM) was 1.260 and the “Dose.FC.CTG (log2 fold change)” value (ENR+CD organoids; dose 0.40 uM) was 0.545. The “Z.CTG (standard z score)” value (ENR+CD organoids; dose 0.40 uM) was 1.302, the “Dose.FC.CTG (log2 fold change)” value (ENR+CD organoids; dose 2.00 uM) was 0.488 and the “Z.CTG (standard z score)” value (ENR+CD organoids; dose 2.00 uM) was 1.166. The “Dose.FC.CTG (log2 fold change)” value (ENR+CD organoids; dose 10.00 uM) was 0.370 and the “Z.CTG (standard z score)” value (ENR+CD organoids; dose 10.00 uM) was 0.883.
